Patent US20050175580A1, “Compositions and methods for enhancing cytokine activity and treating hypotension associated with the administration of cytokines” (priority 2001, published 2005)
“Also recorded” adds a separate entry of the source.

Columns and labels:
Meth A tumor [1] = experiment: Meth A fibrosarcoma tumor model (malignant ascites), survival; type: in vivo, BALB/c mice
Description: Meth A was induced in a BALB/c mouse by methylcholanthrene treatment (obtained from Lloyd Old, MSKCC). This very aggressive fibrosarcoma is one of the rare tumors resistant to LAK cell mediated cytolysis in vitro. […] See Yim et al., J. Immunol. 155: 4382-4390 (1995).
Survival of the mice was used as the major endpoint to assess therapeutic responses.

Meth A tumor [2] = experiment: NO-mediated apoptosis of Meth A tumor (not shown); type: cell-based, mouse
LAK cells = experiment: LAK cell induction in vivo, 51Cr release of lymph node and spleen cells against RD-995 tumor; design: species or system mice
Description: Parallel groups of untreated mice or mice receiving M40403 alone (at the highest dose tested of 3 mg/kg) served as a control. […] A single cell suspension was prepared from the lymph nodes and spleen from each animal, and serial dilutions made (starting from 10^6). Cytolytic activity of lymph node and spleen cells was tested against ^51Cr-radiolabeled RD-995 tumor (NK resistant, LAK sensitive, 10^4 cells) in a standard 4h ^51Cr release assay at a varying effector to target cell ratio (in triplicate). […] Statistical comparison of specific cytotoxicity (e.g. at 100:1 effector to target ratio) and lytic units per organ will be performed using Student's t-test, using Bonferroni's correction for multiple analyses.

NO = experiment: Inhibition of NO (not shown)
RD-995 tumor = experiment: Rosenberg tumor model, RD-995 pulmonary metastases; type: in vivo, mice
Description: RD-995 is a skin fibrosarcoma that was induced by chronic ultraviolet light exposure of a C3H/HeN mouse (Samlowski et al., 1995). This tumor grows in non-immunosuppressed mice, and is thus termed a “progressor” tumor.
Once stabilized, mice were injected with 10^6 RD-995 tumor cells intravenously. […] On day 14, mice were sacrificed by anesthetic overdose. After anterior thoracotomy, India ink solution (30 ml India ink, 4 drops ammonium hydroxide in 170 ml distilled water) was instilled into the trachea of each mouse via 18 ga. needle, until the lungs were completely expanded. Lungs were then excised and bleached in 5-10 ml Fekete's solution (100 ml 70% ethanol, 10 ml formaldehyde, 5 ml glacial acetic acid) for at least 24 h prior to enumeration of metastases using a magnifying lens.

mice [3] = experiment: IL-2 dose escalation study with or without M40403 (deaths, blood pressure); type: in vivo
Description: Analysis was performed using Chart 3.6.1 software (AD instruments).

murine (mouse) LAK cell = experiment: LAK cell induction in vitro, murine splenocytes activated with IL-2, cytotoxicity against RD-995 tumor, trypan blue viability; type: cell-based
Description: Non-M40403 exposed cultures served as a positive control. After 72 h, LAK cells were harvested and cell viability evaluated. LAK cells cytotoxicity was tested against RD-995 tumor in triplicate samples at varying effector to target cell ratios (expressed as mean±SD) using previously published methods (Yim et al., 1994; Samlowski et al., 1998).
Cell viability was assessed by trypan blue exclusion. Viability remained at 100% of control at up to 10 μM M40403 (not shown).

mice [4] = experiment: IL-2 induced hypotension in mice, systolic blood pressure via tail cuff; type: in vivo
Description: Parallel groups of untreated mice or mice receiving M40403 alone (at the highest dose tested of 3 mg/kg) served as a control. […] Analysis was performed using Chart 3.6.1 software (AD instruments).
Preliminary experiments were also performed with M40401.

[5] = M40403 3 mg/kg i.p. b.i.d. in conjunction with IL-2 180,000 IU for 5 days
[6] = M40403 at highest dose, 3 mg/kg b.i.d. for 5 days

[Cl-].[Cl-].[Mn+2].c1cc2nc(c1)CN[C@@H]1CCCC[C@H]1NCCN[C@@H]1CCCC[C@H]1NC2 [M40403]
IL-2 induced anti-tumor responses, combination of IL-2 with M40403 (Meth A tumor [1]; IL-2 180,000 IU s.c. with M40403 3 mg/kg s.c.): improves IL-2 induced anti-tumor responses
effect on survival (Meth A tumor [1]; M40403 itself, 3 mg/kg s.c.): did not affect survival
effect on NO-mediated apoptosis of Meth A tumor (Meth A tumor [2]): does not affect
IL-2 induced LAK cells activation in vivo, lymph nodes (LAK cells; [5]): significantly potentiated
IL-2 induced LAK cells activation in vivo, spleen (LAK cells; [5]): significantly potentiated
LAK cell induction in vivo (LAK cells; M40403 by itself, 3 mg/kg): did not increase
inhibition of NO (NO): does not inhibit
effect on the anti-tumor effects of IL-2 (RD-995 tumor; M40403 3 mg/kg concurrently with IL-2): did not affect the anti-tumor effects of IL-2
number of tumor nodules in lungs (RD-995 tumor; single agent, IL-2 180,000 IU i.p. every 12 h for 5 days or M40403 3 mg/kg, day 14): completely eliminated
blood pressure under escalating doses of IL-2 (mice [3]; M40403 3 mg/kg i.p. b.i.d. in conjunction with IL-2): allowed BP to be maintained
deaths (mice [3]; M40403 3 mg/kg i.p. b.i.d. in conjunction with IL-2, all doses of IL-2 (180,000-400,000 IU)): 0 deaths of 6 mice
effect on murine LAK cell activation by IL-2 (murine (mouse) LAK cell; M40403 0-10 μM during IL-2 activation (6000 IU/ml rhIL-2), 72 h): did not adversely affect; also recorded: do not adversely affect
dose dependence of LAK cell activation (murine (mouse) LAK cell; increasing concentrations of M40403 during IL-2 activation): dose-dependent increase
cell viability (murine (mouse) LAK cell; up to 10 μM M40403, trypan blue exclusion): 100 % of control
effect on systolic blood pressure (mice [4]; [6]): no effect on systolic blood pressure
signs of toxicity (mice [4]; [6]): no apparent signs of toxicity
reversal / attenuation of IL-2 induced hypotension (mice [4]; SOD mimetic i.p. b.i.d. in conjunction with IL-2 180,000 IU for 5 days): attenuated in a dose-dependent manner
dose at which maximal / full reversal of IL-2 induced hypotension was obtained (mice [4]; b.i.d. with IL-2 for 5 days): 3 mg/kg
Mean Systolic BP (mice [4]; mice, n=6 per group, IL-2 180,000 IU i.p. twice daily for 5 days, M40403 alone at 3 mg/kg, tail cuff two hours after last dose of IL-2): 111.21
systolic BP, mean (mice [4]; mice, n=6 per group, IL-2 180,000 IU i.p. twice daily for 5 days, M40403 alone at 3 mg/kg, two hours after last dose of IL-2): 111±45 mmHg
